Where two headings read alike, the source gives them in different places.
Columns and labels:
GPR84 F187A = target: T1, GPR84 F187A (Homo sapiens, UniProt Q9NQS5, F187A); experiment: BRET β-arrestin-2 recruitment assay, HEK293T cells; format: cell-based; conditions: for EC50: F187A, read-out: β-arrestin-2 pEC50 ± SEM (converted)
T1 construct: FLAG (N); eYFP (C); expressed in transfected cells; host or cells: HEK293T, transient
Description: (§1) As a control, cells were transfected with 100:1 ratio of empty plasmid and the appropriate arrestin isoform fused to nano-luciferase. After 24 h, cells were seeded at 50,000 cells per well in poly-D-lysine-coated white 96-well plates and incubated at 37°C overnight. After 24 h, cells were washed twice with Hank’s balanced salt solution (HBSS), pH 7.4, and 10 μl/well of the nano-luciferase substrate coelenterazine-h (Nanolight Technologies) was added to a final concentration of 5 μM. Cells were incubated in the dark for 10 min at 37°C, after which 10 μl/well of the agonist compound was added, and the cells were incubated for another 5 minutes. 15 min after coelenterazine-h addition, reading of emission signals were performed on a PHERAstar FS plate reader (BMG Labtech) at 475 and 535 nm, representing nano-luciferase and eYFP emission signals, respectively. The net bioluminescence resonance energy transfer (BRET) ratio (mBRET) was calculated as follows: mBRET=(BRET^sample−BRET^control)*1000whereBRET=Emission^535nm/Emission^475nm

GPR84 L336A = target: T2, GPR84 L336A (Homo sapiens, UniProt Q9NQS5, L336A); experiment: BRET β-arrestin-2 recruitment assay, HEK293T cells; format: cell-based; conditions: for EC50: L336A, read-out: β-arrestin-2 pEC50 ± SEM (converted)
T2 construct: FLAG (N); eYFP (C); expressed in transfected cells; host or cells: HEK293T, transient
Description: as §1

GPR84-WT = target: T3, GPR84-WT (Homo sapiens, UniProt Q9NQS5); experiment: BRET β-arrestin-2 recruitment assay, HEK293T cells; format: cell-based; conditions: Extended Data Table 4, read-out: β-arrestin-2 pEC50 ± SEM (converted)
T3 construct: FLAG (N); eYFP (C); expressed in transfected cells; host or cells: HEK293T, transient
Description: as §1

GPR84 (wild type) = target: T4, GPR84 (wild type) (Homo sapiens, UniProt Q9NQS5); experiment: Competition binding assay with orthosteric antagonist [3H]140
T4 construct: expressed in transfected cells; host or cells: Flp-In T-REx 293 cells (membranes, doxycycline-induced)
Description: Binding was initiated by the addition of 5 μg membrane protein generated from Flp-In™ T-REx™ cells induced to express the receptor construct of interest with 100 ng/ml doxycycline. Nonspecific binding of the radioligand was determined in the presence of 10 μM compound 837. All assays were performed at 25 °C for 1 h before termination by the addition of ice-cold phosphate-buffered saline (PBS) and vacuum filtration through GF/C glassfibre filter-bottom 96-well microplates using a UniFilter FilterMate Harvester (Revvity). Each well was washed three times with ice-cold PBS and filters were allowed to dry for 2–3 h before addition of 50 μl of Ultima Gold™ XR. Radioactivity was quantified by liquid scintillation spectrometry.

wild type GPR84 [1] = target: T5, wild type GPR84 (Homo sapiens, UniProt Q9NQS5); experiment: pThr263/pThr264 GPR84 phosphorylation assay (magnetic bead capture); format: cell-based; conditions: for EC50: 5 min stimulation, read-out: pEC50 ± SEM, phosphorylation of Thr263 and Thr264 (converted)
T5 construct: expressed in transfected cells
Description: Flp-In™ TREx™ 293 cells engineered to express FLAG-GPR84-eYFP were seeded onto poly-D-lysine-coated clear 96-well plates at a density of 5 x 10^4 cells/well and grown overnight before treatment with 100 ng/ml doxycycline to induce receptor expression. After 24 h, cells were serum starved for 2 hours then stimulated with the indicated agonists, prepared in serum free media, for 5 min at 37 °C. After washing with ice-cold PBS, cells were lysed in 100 μl/well lysis buffer (150 mM NaCl, 50 mM Tris-HCl, 5 mM EDTA, 1% IGEPAL (Nonidet P-40), 0.5% deoxycholic acid, and 0.1% SDS; pH 7.4) supplemented with protease and phosphatase inhibitor cocktail on an orbital shaker for 1 hour at 4 °C. Lysates were cleared by centrifugation at 3700 × g for 20 min at 4 °C and 80 μl of supernatants transferred into 96-U-bottom-well assay plates (Greiner Bio-One). GFP-Trap® magnetic agarose beads (1 μl/well) were washed then diluted in lysis buffer to give a total volume of 20 μl of bead slurry per well before adding to supernatant. Assay plates were incubated on a microplate shaker at 700 rpm for 2 h at 4 °C then washed three times with 100 μl of PBS with 0.1% Tween-20 (PBS-T) under magnetic force using a handheld magnetic separation block (Milliplex, Millipore). After washing, anti-pThr263/pThr264 antiserum was diluted 1:1000 in PBS-T then 60 μl added to assay plate. The plates were then incubated overnight at 4 °C on a microplate shaker. After another wash cycle (3 x with PBS-T), anti-rabbit horseradish […] (HRP)-linked secondary antibody was added to PBS-T to a final dilution of 1:10,000 and incubated on a microplate shaker for 2 h at room temperature. After a further wash cycle, 100 μl of TMB substrate solution was added to each well and the plates were incubated for 15 min. The reaction was stopped by the addition of 100 μl of 0.3 M sulphuric acid. The assay plates were then placed on a magnetic separation block and 100 μl of the supernatant was transferred to a transparent 96-well F-bottom plate. The OD at 450 nm was then read on a PHERAstar FS plate reader (BMG Labtech).

wild type GPR84 [2] = target: T5, wild type GPR84; experiment: pThr263/pThr264 immunoblot of immunoprecipitated GPR84-eYFP; format: cell-based; conditions: 1 μM
Description: eYFP-linked receptor constructs were immunoprecipitated from 200 μl cell lysates using GFP-Trap® agarose beads (Proteintech) according to manufacturer’s instructions. Immunocomplexes were washed three times in washing buffer, resuspended in 100 μl 2 × SDS-PAGE sample buffer and incubated at 60 °C for 10 min. Following centrifugation at 2500g for 5 min, 20 μl of immunoprecipitated proteins was resolved by SDS-PAGE on 4% to 12% BisTris gels. After separation, the proteins were transferred electrophoretically onto nitrocellulose membrane, which was then blocked using 5% bovine serum albumin (BSA) in Tris-buffered saline (TBS, 50 mM Tris-Cl, 150 mM NaCl, pH 7.6) for 1 h at room temperature on an orbital shaker. The membrane was then incubated with appropriate primary antibody in 5% BSA in TBS supplemented with 0.1% Tween (TBS-T) overnight at 4 °C. Anti-pThr^263/pThr^264 antiserum was diluted 1:2000 and anti-GFP was diluted 1:10,000. Subsequently, the membrane was washed (3 × 10 min with TBS-T) and incubated for 2 h with anti-rabbit secondary antibody diluted 1:10,000 in 5% BSA in TBS-T. After washing (3 × 10 min with TBS-T), proteins were detected using an Odyssey imaging system (Licor) according to the manufacturer’s instructions.

[3] = competition with [3H]140, Fig. 1f, read-out: pKi (converted)

T2 sequence (Q9NQS5 whole entry L336A): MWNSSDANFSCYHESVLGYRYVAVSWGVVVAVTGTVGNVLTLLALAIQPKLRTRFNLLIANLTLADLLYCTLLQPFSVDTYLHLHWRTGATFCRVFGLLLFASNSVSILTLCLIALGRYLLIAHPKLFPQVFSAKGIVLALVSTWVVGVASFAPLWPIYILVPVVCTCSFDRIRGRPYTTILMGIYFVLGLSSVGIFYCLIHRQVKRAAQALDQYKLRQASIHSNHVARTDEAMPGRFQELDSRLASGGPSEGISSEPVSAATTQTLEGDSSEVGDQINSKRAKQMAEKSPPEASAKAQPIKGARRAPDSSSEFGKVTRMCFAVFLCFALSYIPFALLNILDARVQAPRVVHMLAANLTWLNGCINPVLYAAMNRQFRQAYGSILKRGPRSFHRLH
T1 sequence (Q9NQS5 whole entry F187A): as the sequence (Q9NQS5 whole entry L336A) above, with F187A, A336L counted along it
T4 sequence (Q9NQS5+P04899 fused P04899:C352I): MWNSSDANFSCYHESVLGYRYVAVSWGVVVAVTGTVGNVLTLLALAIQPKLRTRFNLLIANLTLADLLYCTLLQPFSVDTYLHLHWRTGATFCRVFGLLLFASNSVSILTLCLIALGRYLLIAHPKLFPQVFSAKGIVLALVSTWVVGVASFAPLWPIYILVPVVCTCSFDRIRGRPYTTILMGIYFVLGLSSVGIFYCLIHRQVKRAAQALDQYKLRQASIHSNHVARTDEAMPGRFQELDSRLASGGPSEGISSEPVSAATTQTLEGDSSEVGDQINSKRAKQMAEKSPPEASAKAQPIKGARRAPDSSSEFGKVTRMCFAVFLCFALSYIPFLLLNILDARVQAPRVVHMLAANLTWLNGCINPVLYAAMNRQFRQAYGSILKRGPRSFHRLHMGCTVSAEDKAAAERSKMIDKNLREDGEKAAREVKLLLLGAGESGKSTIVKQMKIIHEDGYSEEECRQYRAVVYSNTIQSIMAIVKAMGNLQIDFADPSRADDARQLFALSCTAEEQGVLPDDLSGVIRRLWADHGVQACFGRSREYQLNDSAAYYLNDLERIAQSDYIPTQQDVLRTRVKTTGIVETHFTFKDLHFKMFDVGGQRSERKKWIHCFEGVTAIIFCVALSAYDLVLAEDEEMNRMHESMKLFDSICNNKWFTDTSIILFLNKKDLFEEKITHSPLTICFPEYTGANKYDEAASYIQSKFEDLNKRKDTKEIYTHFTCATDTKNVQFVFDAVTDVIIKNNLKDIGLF
T5 sequence (Q9NQS5 whole entry): as the sequence (Q9NQS5 whole entry L336A) above, with A336L counted along it
T3 sequence (Q9NQS5 whole entry): as the sequence (Q9NQS5 whole entry L336A) above, with A336L counted along it

Row | SMILES | EC50 (GPR84 F187A) [nM] | efficacy in promoting interaction with β-arrestin-2 (GPR84 F187A; Phe187Ala GPR84, HEK293T) | EC50 (GPR84 L336A) [nM] | efficacy in promoting interaction with β-arrestin-2 (GPR84 L336A; Leu336Ala GPR84, HEK293T) | EC50 (GPR84-WT) [nM] | Ki (GPR84 (wild type); GPR84-Gi2 fusion protein stable cell line, Extended Data Fig. 7, read-out: pKi (WT) (converted)) [nM] | Ki (GPR84 (wild type); [3]) [nM] | EC50 (wild type GPR84 [1]) [nM] | potency and efficacy in promoting phosphorylation of Thr263/Thr264 (wild type GPR84 [1]; magnetic bead capture assay) | phosphorylation of Thr263 and Thr264 (immunoblot) (wild type GPR84 [2])
1 | [O-][n+]1cc(O)cc(CCc2ccc(Cl)c(C(F)(F)F)c2)c1 [OX04529] | 3.09 | substantial efficacy | 1.23 | full agonist | 58.9 | 51.3 | 10.2 | 12.3 | weak efficacy | ineffective
2 | Cc1cc(CCCc2cc(O)c[n+]([O-])c2)ccc1Cl [OX04954] | 4.07 |  | 1.32 |  | 28.2 |  | 6.76 | 7.59 |  | promoted phosphorylation
